In patent US10834886B2, “Switchgrass cultivar PanIR” (priority 2017, dated 2020):

Experiments:
switchgrass stands = details: in vivo; cited from earlier work
[1] = tested on: Cycle1 switchgrass seedlings; assay: Herbicide screening of seedlings, First: Second Generation Selection; assay type: in vivo
Method: Subsequent testing of the first generation seed/seedlings was conducted in the same manner as the initial herbicide screenings. The planting of the trays consisted of 8 rows of the first generation, one row Alamo, and one row indiangrass (tolerant control).
Seedlings of Cycle1 (315,360) were screened for tolerance to 14 oz/A (2×) rate of Plateau®. Ninety-seven (97) survived the initial imazapic application. Sixty-eight (68) succumbed to a second (8 oz/A) application leaving twenty-nine (29) tolerant individuals which were planted in an isolated crossing block at Longview, Miss. (33.404999, −88.938283) as Cycle2.

[2] = tested on: Indiangrass (resistant check); assay: Field emergence: seedlings surviving imazapic application; assay type: in vivo, Sorghastrum nutans; details: 14 oz/A
Method: (§1) Plants were seeded in July and August of 2014 and during May of 2015. Data presented in Table 4 indicates 2014 testing at three locations (Brooksville, Newton, and Starkville). At all locations, PanIR seedling numbers exceeded all other generations of selection as well as the resistant check (indiangrass).

PanIR Cycle3 switchgrass = assay: Agar/growth chamber germination on water agar + imazapic; assay type: in vivo, Panicum virgatum; details: 2.3 times higher rate, controlled conditions
From the text: (§2) Since field emergence relies on soil tilth, rainfall, planter depth, and a host of other conditions, the inventors opted for a more uniform method of testing resistance: imazapic-dosed water agar. Data from germination under controlled conditions indicated significant progress for resistance to imazapic (Table 3) over three cycles of selection.

[3] = tested on: Alamo (Cycle0) lowland switchgrass; assay: as above; assay type: in vivo, Panicum virgatum; details: controlled conditions
From the text: as §2

Cycle 2 switchgrass = assay: Field emergence: seedlings surviving imazapic application; assay type: in vivo, Panicum virgatum; details: 14 oz/A
Method: as §1

[4] = tested on: PanIR (Cycle 3) switchgrass; assay: as above; assay type: in vivo, Panicum virgatum; details: 14 oz/A
Method: as §1

Cycle 1 switchgrass = assay: as above; assay type: in vivo, Panicum virgatum; details: 14 oz/A
Method: as §1

Rapid Germ Switchgrass = assay: as above; assay type: in vivo, Panicum virgatum; details: 14 oz/A
Method: as §1

[5] = tested on: Alamo (Cycle 0) switchgrass; assay: as above; assay type: in vivo, Panicum virgatum; details: 14 oz/A
Method: as §1

[6] = tested on: Alamo switchgrass seedlings (Cycle0); assay: Herbicide screening of seedlings, Zero: First Generation Selection; assay type: in vivo, Panicum virgatum
Method: Selection for herbicide resistance was conducted using methods similar to the study performed by Bahler and others (1983). Heavy duty plastic and metal trays measuring 51.5 cm×36.5 cm were used to hold the germinating seedlings during growth and also allowed for easy maintenance and efficient application of herbicide. The testing was conducted in a greenhouse that maintained a nightly temperature of 20° C. and a daily temperature of 30° C. Before the autumnal equinox, day length was not supplemented for the experiment. After the equinox, light was extended to 16 hrs. Day length is a concern due to switchgrass' photoperiodic nature. Eight trays represent a replicate, which were repeated over time. Each tray was filled with autoclaved field soil approximately ¾ full. A 2.5 cm×30.5 cm piece of PVC pipe was used to form ten micro-furrows spaced at 5 cm within each tray. Nine of the ten rows were planted with approximately […] Alamo switchgrass seed (Sharp Brothers, Healy, Kans.). The remaining, randomly selected row was planted with 250 indiangrass seed (MSU 3rd cycle of selection for precocious germination). One hundred (100) seed were evenly dispersed within each furrow of the flat; flats were top-dressed with 0.63 cm of autoclaved field soil. The trays were watered on a daily basis. Emergence of the seedlings usually took place 6-8 days after planting. Once the seedlings broke the soil surface, they were allowed to grow to the three leaf stage (approximately 14 days). A calibrated spray chamber was used to apply the herbicide to the seedlings in the trays. For imazapic, the recommended rate is 140 g a.i./ha on mixed grassland, applied with less than 93.54 liters of water per hectare, sprayed at a constant pressure of 40 psi. A spray adjuvant (nonionic surfactant) was added to the formulation. In order to achieve the correct amounts for the spray mixture, the following calculations were made: (8 fl.oz./1 ac.)×(1 ac./15 gal.sol.)×(1 gal./128 fl.oz.sol.)×(20 f.oz.sol./1 bottle)×(3785 ml/128 fl.oz.)=2.46 ml/1 bottle H2O (3-1) The formulation requires 2.46 mls of Plateau®, 1.5 mls of surfactant, and 556 mls of water to fill the spray bottle for the chamber. The trays were placed two at a time in the chamber and sprayed at a fixed speed ([…]) to ensure proper dosage. A dose response curve was conducted on the sixth trial to determine the rate of Plateau® that would kill a majority of the switchgrass seedlings (Table 1).
The upper limit was 245 g a.i./ha, which exceeded the labeled rate for big bluestem and indiangrass. […] Eight trays represented the curve and were assessed on the amount of discoloration relative to the unsprayed tray. […]

[7] = tested on: switchgrass cultivars, Alamo and Kanlow; details: pre-plant application; cited from earlier work

For CCNc1nc(Cl)nc(NC(C)C)n1 [atrazine], the “effect on switchgrass stands” value (switchgrass stands) is listed as “no deleterious effects”.

In the case of Cc1cnc(C2=NC(C)(C(C)C)C(=O)N2)c(C(=O)O)c1 (stereo not shown) [imazapic, 5-methyl-2-[4-methyl-5-oxo-4-(propan-2-yl)-4,5-dihydro-1H-imidazol-2-yl]pyridine-3-carboxylic acid], the selection intensity ([1]; Cycle1: 29 seedlings selected out of 36,441 seedlings) is reported as 0.0795%, the mortality rate ([1]; seedlings produced from the first cycle polycross of selection) is reported as “greater than 75%” and the “Number of seedlings surviving, 42 days after spraying” value (shortened to “Number of seedlings surviving”) ([2]; Brooksville 2014) is reported as 16.25^†B* seedlings emerged per 30 cm of row. For the same molecule, the “Number of seedlings surviving” value ([2]; Brooksville 2015) was 24.50^†B* seedlings emerged per 30 cm of row, the “Number of seedlings surviving” value ([2]; Newton 2014) was 14.50 B seedlings emerged per 30 cm of row and the “Number of seedlings surviving” value ([2]; Starkville 2014) was 19.75 B seedlings emerged per 30 cm of row. For the same molecule, the “Number of seedlings surviving” value ([2]; Starkville 2015) was 13.33 B seedlings emerged per 30 cm of row, the “resistance as percentage of the population” value (PanIR Cycle3 switchgrass) was “about 93.6%” and the “resistance as percentage of the population” value [3] was “approximately 3%”. The “Number of seedlings surviving” value (Cycle 2 switchgrass; Brooksville 2014) was 14.25 B seedlings emerged per 30 cm of row, the “Number of seedlings surviving” value (Cycle 2 switchgrass; Brooksville 2015) was 18.75 BC seedlings emerged per 30 cm of row and the “Number of seedlings surviving” value (Cycle 2 switchgrass; Newton 2014) was 13.00 B seedlings emerged per 30 cm of row. For the same molecule, the “Number of seedlings surviving” value (Cycle 2 switchgrass; Starkville 2014) was 13.75 BC seedlings emerged per 30 cm of row, the “Number of seedlings surviving” value (Cycle 2 switchgrass; Starkville 2015) was 5.67 B seedlings emerged per 30 cm of row and the “Number of seedlings surviving” value ([4]; Brooksville 2014) was 53.00 A seedlings emerged per 30 cm of row. The “Number of seedlings surviving” value ([4]; Brooksville 2015) was 115.75 A seedlings emerged per 30 cm of row, the “Number of seedlings surviving” value ([4]; Newton 2014) was 43.00 A seedlings emerged per 30 cm of row and the “Number of seedlings surviving” value ([4]; Starkville 2014) was 49.50 A seedlings emerged per 30 cm of row. The “Number of seedlings surviving” value ([4]; Starkville 2015) was 16.00 A seedlings emerged per 30 cm of row, the “Number of seedlings surviving” value (Cycle 1 switchgrass; Brooksville 2014) was 8.25 B seedlings emerged per 30 cm of row and the “Number of seedlings surviving” value (Cycle 1 switchgrass; Brooksville 2015) was 19.25 BC seedlings emerged per 30 cm of row. The “Number of seedlings surviving” value (Cycle 1 switchgrass; Newton 2014) was 10.25 B seedlings emerged per 30 cm of row, the “Number of seedlings surviving” value (Cycle 1 switchgrass; Starkville 2014) was 3.25 C seedlings emerged per 30 cm of row and the “Number of seedlings surviving” value (Cycle 1 switchgrass; Starkville 2015) was 2.00 B seedlings emerged per 30 cm of row. The “Number of seedlings surviving” value (Rapid Germ Switchgrass; Brooksville 2014) was 2.75 B seedlings emerged per 30 cm of row, the “Number of seedlings surviving” value (Rapid Germ Switchgrass; Brooksville 2015) was 0.00 C seedlings emerged per 30 cm of row and the “Number of seedlings surviving” value (Rapid Germ Switchgrass; Newton 2014) was 2.00 B seedlings emerged per 30 cm of row. For the same molecule, the “Number of seedlings surviving” value (Rapid Germ Switchgrass; Starkville 2014) was 2.00 C seedlings emerged per 30 cm of row, the “Number of seedlings surviving” value (Rapid Germ Switchgrass; Starkville 2015) was 1.00 B seedlings emerged per 30 cm of row and the “Number of seedlings surviving” value ([5]; Brooksville 2014) was 2.00 B seedlings emerged per 30 cm of row. The “Number of seedlings surviving” value ([5]; Brooksville 2015) was 5.75 BC seedlings emerged per 30 cm of row, the “Number of seedlings surviving” value ([5]; Newton 2014) was 6.50 B seedlings emerged per 30 cm of row and the “Number of seedlings surviving” value ([5]; Starkville 2014) was 8.25 BC seedlings emerged per 30 cm of row. The “Number of seedlings surviving” value ([5]; Starkville 2015) was 1.00 B seedlings emerged per 30 cm of row, the selection intensity ([6]; 364,650 seedlings, 63 survivors, 245 g a.i./ha) was 0.0172% and the selection intensity ([6]; Cycle0 (Alamo): 63 individuals selected out of 306,000 seedlings) was 0.0205%. The “individuals surviving the initial screening” value ([6]; approximately 364,650 Alamo individuals screened, 8 oz/A) was 78 individuals and the “individuals remaining in base population after second screening” value ([6]; the 78 survivors exposed to one-time application of 14 oz/A) was 63 individuals.

In the case of CCC(CC)Nc1c([N+](=O)[O-])cc(C)c(C)c1[N+](=O)[O-] [Pendimethalin, pendimethalin], the mortality of stands [7] is listed as “up to 50%”.
